Measured values: patent US20250230193A1, “CYCLIC COMPOUND HAVING SELECTIVE KRAS INHIBITORY EFFECT ON HRAS AND NRAS” (CHUGAI SEIYAKU KABUSHIKI KAISHA, priority 2022, published 2025)

What was measured:
[1] = target: GDP-bound NRAS wild-type protein (Homo sapiens, UniProt P01111); assay: Binding to NRAS by surface plasmon resonance (SPR), Single Cycle Kinetics; details: KD ratio NRAS/KRAS, SPR
[2] = target: GDP-bound HRAS wild-type protein (Homo sapiens, UniProt P01112); assay: Binding to HRAS by surface plasmon resonance (SPR), Single Cycle Kinetics; details: KD ratio HRAS/KRAS, SPR
Chain of GDP-bound HRAS wild-type protein (P01112 whole entry): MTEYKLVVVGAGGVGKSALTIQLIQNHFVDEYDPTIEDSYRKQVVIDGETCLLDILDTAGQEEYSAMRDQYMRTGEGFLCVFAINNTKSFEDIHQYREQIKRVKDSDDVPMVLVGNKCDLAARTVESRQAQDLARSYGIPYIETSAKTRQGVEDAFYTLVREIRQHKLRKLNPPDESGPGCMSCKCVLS

Chain of GDP-bound NRAS wild-type protein (P01111 whole entry): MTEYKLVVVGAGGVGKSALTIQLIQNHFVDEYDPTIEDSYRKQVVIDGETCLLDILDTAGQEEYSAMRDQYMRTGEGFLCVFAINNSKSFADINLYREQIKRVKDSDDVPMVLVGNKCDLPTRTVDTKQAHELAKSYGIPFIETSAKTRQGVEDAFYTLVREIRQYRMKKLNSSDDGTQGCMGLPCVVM

| SMILES | NRAS/KRAS (ratio of KD value with respect to GDP-bound NRAS wild-type protein to KD value with respect to KRAS) [1] | HRAS/KRAS (ratio of KD value with respect to GDP-bound HRAS wild-type protein to KD value with respect to KRAS) [2] |
| --- | --- | --- |
| CCO[C@@H]1C[C@H]2C(=O)NC3(CCCC3)C(=O)N(C)[C@@H](C3CCCC3)C(=O)N(C)[C@H](C(=O)N(C)C)CC(=O)N(C)[C@@H](C)C(=O)N[C@@H]([C@@H](C)CC)C(=O)N(C)CC(=O)N(C)[C@H]3CCCCN(C3=O)[C@@H](Cc3ccc(C(F)(F)F)cc3)C(=O)N(C)CC(=O)N[C@@H](CCc3cc(F)c(C(F)(F)F)c(F)c3)C(=O)N2C1 [PP0586] | C (A compound having a KD ratio of 0.1 or more and less than 3 is denoted as C) | B (a compound having 3 or more and less than 10 is denoted as B) |
| CCO[C@@H]1C[C@H]2C(=O)NC3(CCC3)C(=O)N(C)[C@@H](C3CCCC3)C(=O)N(C)[C@H](C(=O)N(C)C)CC(=O)N(C)[C@@H](C)C(=O)N[C@@H]([C@@H](C)CC)C(=O)N(C)CC(=O)N(C)[C@H]3CCCCN(C3=O)[C@@H](Cc3ccc(C(F)(F)F)cc3)C(=O)N(C)CC(=O)N[C@@H](CCc3cc(F)c(C(F)(F)F)c(F)c3)C(=O)N2C1 [PP0587] | C (A compound having a KD ratio of 0.1 or more and less than 3 is denoted as C) | C (A compound having a KD ratio of 0.1 or more and less than 3 is denoted as C) |
| CC[C@H](C)[C@@H]1NC(=O)[C@H](CC(C)C)N(CC)C(=O)C[C@@H](C(=O)N2CCOCC2)N(C)C(=O)[C@H](C2CCCC2)N(C)C(=O)C2(CCCC2)NC(=O)[C@@H]2CCCN2C(=O)[C@H](CCc2cc(F)c(C(F)(F)F)c(F)c2)NC(=O)CN(C)C(=O)[C@H](Cc2ccc(C(F)(F)F)cc2)N2CCCC[C@@H](C2=O)N(C)C(=O)CN(C)C1=O [PP0588] | B (a compound having 3 or more and less than 10 is denoted as B) | B (a compound having 3 or more and less than 10 is denoted as B) |
| CC[C@H](C)[C@@H]1NC(=O)[C@H](CC(C)C)N(C)C(=O)C[C@@H](C(=O)N2CCOCC2)N(C)C(=O)[C@H](C2CCCC2)N(C)C(=O)C2(CCCC2)NC(=O)[C@H](C)N(CC)C(=O)[C@H](CCc2cc(F)c(C(F)(F)F)c(F)c2)NC(=O)CN(C)C(=O)[C@H](Cc2ccc(C(F)(F)F)cc2)N2CCCC[C@@H](C2=O)N(C)C(=O)CN(C)C1=O [PP0589] | B (a compound having 3 or more and less than 10 is denoted as B) | B (a compound having 3 or more and less than 10 is denoted as B) |
| CC[C@H](C)[C@@H]1NC(=O)[C@H](CC(C)C)NC(=O)C[C@@H](C(=O)N2CCOCC2)N(C)C(=O)[C@H](C2CCCC2)N(C)C(=O)C2(CCCC2)NC(=O)[C@@H]2CCCN2C(=O)[C@H](CCc2cc(F)c(C(F)(F)F)c(F)c2)NC(=O)CN(C)C(=O)[C@H](Cc2ccc(C(F)(F)F)cc2)N2CCCC[C@@H](C2=O)N(C)C(=O)CN(C)C1=O [PP0590] | C (A compound having a KD ratio of 0.1 or more and less than 3 is denoted as C) | B (a compound having 3 or more and less than 10 is denoted as B) |
| CC[C@H](C)[C@@H]1NC(=O)[C@@H](CC(C)C)N(C)C(=O)C[C@@H](C(=O)N2CCOCC2)N(C)C(=O)[C@H](C2CCCC2)N(C)C(=O)C2(CCCC2)NC(=O)[C@@H]2CCCN2C(=O)[C@H](CCc2cc(F)c(C(F)(F)F)c(F)c2)NC(=O)CN(C)C(=O)[C@H](Cc2ccc(C(F)(F)F)cc2)N2CCCC[C@@H](C2=O)N(C)C(=O)CN(C)C1=O [PP0591] | B (a compound having 3 or more and less than 10 is denoted as B) | B (a compound having 3 or more and less than 10 is denoted as B) |
| CC[C@H](C)[C@@H]1NC(=O)[C@H](CC(F)(F)F)N(C)C(=O)C[C@@H](C(=O)N2CCOCC2)N(C)C(=O)[C@H](C2CCCC2)N(C)C(=O)C2(CCCC2)NC(=O)[C@@H]2CCCN2C(=O)[C@H](CCc2cc(F)c(C(F)(F)F)c(F)c2)NC(=O)CN(C)C(=O)[C@H](Cc2ccc(C(F)(F)F)cc2)N2CCCC[C@@H](C2=O)N(C)C(=O)CN(C)C1=O [PP0594] | C (A compound having a KD ratio of 0.1 or more and less than 3 is denoted as C) | B (a compound having 3 or more and less than 10 is denoted as B) |
| CC[C@H](C)[C@@H]1NC(=O)[C@@H]2CCCCCN2C(=O)C[C@@H](C(=O)N2CCOCC2)N(C)C(=O)[C@H](C2CCCC2)N(C)C(=O)C2(CCCC2)NC(=O)[C@@H]2CCCN2C(=O)[C@H](CCc2cc(F)c(C(F)(F)F)c(F)c2)NC(=O)CN(C)C(=O)[C@H](Cc2ccc(C(F)(F)F)cc2)N2CCCC[C@@H](C2=O)N(C)C(=O)CN(C)C1=O [PP0595] | C (A compound having a KD ratio of 0.1 or more and less than 3 is denoted as C) | B (a compound having 3 or more and less than 10 is denoted as B) |
| CC(C)C[C@H]1C(=O)N[C@@H](C2CCC2)C(=O)N(C)CC(=O)N(C)[C@H]2CCCCN(C2=O)[C@@H](Cc2ccc(C(F)(F)F)cc2)C(=O)N(C)CC(=O)N[C@@H](CCc2cc(F)c(C(F)(F)F)c(F)c2)C(=O)N2CCC[C@H]2C(=O)NC2(CCCC2)C(=O)N(C)[C@@H](C2CCCC2)C(=O)N(C)[C@H](C(=O)N2CCOCC2)CC(=O)N1C [PP0596] | B (a compound having 3 or more and less than 10 is denoted as B) | B (a compound having 3 or more and less than 10 is denoted as B) |
| CCC(CC)[C@@H]1NC(=O)[C@H](CC(C)C)N(C)C(=O)C[C@@H](C(=O)N2CCOCC2)N(C)C(=O)[C@H](C2CCCC2)N(C)C(=O)C2(CCCC2)NC(=O)[C@@H]2CCCN2C(=O)[C@H](CCc2cc(F)c(C(F)(F)F)c(F)c2)NC(=O)CN(C)C(=O)[C@H](Cc2ccc(C(F)(F)F)cc2)N2CCCC[C@@H](C2=O)N(C)C(=O)CN(C)C1=O [PP0597] | B (a compound having 3 or more and less than 10 is denoted as B) | B (a compound having 3 or more and less than 10 is denoted as B) |
| CC[C@H](C)[C@@H]1NC(=O)[C@H](CC(C)C)N(C)C(=O)C[C@@H](C(=O)N2CCOCC2)N(C)C(=O)[C@H](C2CCCC2)N(C)C(=O)C2(CCCC2)NC(=O)[C@@H]2CCCN2C(=O)[C@H](CCc2ccc(C(F)(F)F)c(Cl)c2)NC(=O)CN(C)C(=O)[C@H](Cc2ccc(F)cc2)N2C/C=C\CC[C@@H](C2=O)N(C)C(=O)CN(C)C1=O [PP0607] | C (A compound having a KD ratio of 0.1 or more and less than 3 is denoted as C) | B (a compound having 3 or more and less than 10 is denoted as B) |
| CC[C@H](C)[C@@H]1NC(=O)[C@H](CC(C)C)N(C)C(=O)C[C@@H](C(=O)N2CCOCC2)N(C)C(=O)[C@H](C2CCCC2)N(C)C(=O)C2(CCCC2)NC(=O)[C@@H]2CCCN2C(=O)[C@H](CCc2ccc(C(F)(F)F)c(Cl)c2)NC(=O)CN(C)C(=O)[C@H](Cc2ccc(Cl)cc2)N2C/C=C\CC[C@@H](C2=O)N(C)C(=O)CN(C)C1=O [PP0608] | C (A compound having a KD ratio of 0.1 or more and less than 3 is denoted as C) | B (a compound having 3 or more and less than 10 is denoted as B) |
| CC[C@H](C)[C@@H]1NC(=O)[C@H](CC(C)C)N(C)C(=O)C[C@@H](C(=O)N2CCOCC2)N(C)C(=O)[C@H](C2CCCC2)N(C)C(=O)C2(CCCC2)NC(=O)[C@@H]2CCCN2C(=O)[C@H](CCc2ccc(C(F)(F)F)c(Cl)c2)NC(=O)CN(C)C(=O)[C@H](Cc2ccc(OC)cc2)N2C/C=C\CC[C@@H](C2=O)N(C)C(=O)CN(C)C1=O [PP0609] | B (a compound having 3 or more and less than 10 is denoted as B) | B (a compound having 3 or more and less than 10 is denoted as B) |
| CC[C@H](C)[C@@H]1NC(=O)[C@H](CC(C)C)N(C)C(=O)C[C@@H](C(=O)N2CCOCC2)N(C)C(=O)[C@H](C2CCCC2)N(C)C(=O)C2(CCCC2)NC(=O)[C@@H]2CCCN2C(=O)[C@H](CCc2ccc(C(F)(F)F)c(Cl)c2)NC(=O)CN(C)C(=O)[C@H](Cc2ccc(OC(F)(F)F)cc2)N2C/C=C\CC[C@@H](C2=O)N(C)C(=O)CN(C)C1=O [PP0610] | B (a compound having 3 or more and less than 10 is denoted as B) | B (a compound having 3 or more and less than 10 is denoted as B) |
| CC[C@H](C)[C@@H]1NC(=O)[C@H](CC(C)C)N(C)C(=O)C[C@@H](C(=O)N2CCOCC2)N(C)C(=O)[C@H](C2CCCC2)N(C)C(=O)C2(CCCC2)NC(=O)[C@@H]2CCCN2C(=O)[C@H](CCc2ccc(C(F)(F)F)c(Cl)c2)NC(=O)CN(C)C(=O)[C@H](Cc2ccccc2)N2CCCCC[C@@H](C2=O)N(C)C(=O)CN(C)C1=O [PP0611] | B (a compound having 3 or more and less than 10 is denoted as B) | B (a compound having 3 or more and less than 10 is denoted as B) |
| CC[C@H](C)[C@@H]1NC(=O)[C@H](CC(C)C)N(C)C(=O)C[C@@H](C(=O)N2CCOCC2)N(C)C(=O)[C@H](C2CCCC2)N(C)C(=O)C2(CCCC2)NC(=O)[C@@H]2CCCN2C(=O)[C@H](CCc2ccc(C(F)(F)F)c(Cl)c2)NC(=O)CN(C)C(=O)[C@H](Cc2ccc(F)cc2)N2CCCCC[C@@H](C2=O)N(C)C(=O)CN(C)C1=O [PP0612] | B (a compound having 3 or more and less than 10 is denoted as B) | B (a compound having 3 or more and less than 10 is denoted as B) |
